# In US5922740A, “Heterocyclylcarbonyl substituted benzofuranyl-ureas” (Bayer Aktiengesellschaft, priority 1995, dated 1999):
# Tests used:
# [1] = test system: B6D2F1 mice; experiment: Endotoxin induced shock lethality in mice; assay type: in vivo; conditions: galactosamine-sensitized mice, LPS 0.01 μg/mouse; compound intravenously 1 hour prior LPS, doses of 3 to 30 mg/kg
# Protocol: 9. Endotoxin Induced Shock Lethality in Mice
# B6D2F1 mice (n=10) were sensitized with galactosamine (600 mg/kg), and shock and lethality were triggered by LPS (0.01 μg/mouse). The compounds were administered intravenously 1 hour prior LPS. Controls were LPS challenged mice without compound. Mice were dying 8 to 24 hours post LPS challenge. Example 2, 13 and 16 reduced the endotoxin medicated mortality about 70% to 100% at doses of 3 to 30 mg/kg.
# [2] = test system: human monocytes; experiment: Endotoxin induced TNF release; assay type: cell-based; conditions: LPS 2 μg ml^-1, 18 to 24 hours, ELISA
# Protocol: 7. Preparation of Human Monocytes
# Blood was taken from normal donors. Monocytes were isolated from peripheral blood by density centrifugation, followed by centrifugal elutriation.
# 8. Endotoxin Induced TNF Release
# Monocytes (1×10^6 ml^-1) were stimulated with LPS (2 μg ml^-1) and coincubated with the compounds at different concentrations (10^-4 to 10 μg ml^-1) Compounds were dissolved in DMSO/medium (2% v/v). The cells were incubated in RPMI-1640 medium glutamine/FCS supplemented and at 37° C. in a humidified atmosphere with 5% CO2. After 18 to 24 hours TNF was determined in the supernatants by an human TNF specific ELISA (medgenix). Controls were nonstimulated and LPS stimulated monocytes without compounds. Example 2, 13 and 16 induce inhibition of LPS driven TNF activity in human monocytes (IC50 : 10^-3 to 1 μg ml^-1).
Compound,reduction of endotoxin mediated mortality [1],"IC50, inhibition of LPS driven TNF activity [2]"
COc1ccc2c(NC(N)=O)c(C(=O)c3ccncc3)oc2c1 [Example 2],70% to 100,10^-3 to 1 μg ml^-1
CC[n+]1ccc(C(=O)c2oc3cc(OC)ccc3c2NC(N)=O)cc1 [Example 13],70% to 100,10^-3 to 1 μg ml^-1
Cc1ccc2c(NC(N)=O)c(C(=O)c3cccnc3)oc2c1 [Example 16],70% to 100,10^-3 to 1 μg ml^-1
